Laboratory results reported in patent US11203586B2, “Iridinesulfonamide compound and use method thereof” (Chia Tai Tianqing Pharmaceutical Group Co., Ltd., priority 2016, dated 2021).

Target: IDH1 (R132H) (Homo sapiens (Human), UniProt O75874, R132H)
Assay: Enzyme assay, NADPH decrease detected with Diaphorase/Resazurin
Format: biochemical
Conditions: 40 nM enzyme, 20 μM NADPH, incubated at 23° C. for 16 hours before α-KG; 12 concentrations
Text: Resazurin is a traditional redox dye, and after a redox reaction, it can be reduced from a blue resazurin without fluorescence to a pink fluorescent substance, resorufin, which can be measured and quantified with relative fluorescence unit (RFU) of fluorophotometer (Ex=530-570 nm, Em=590-620 nm). At present, resazurin is widely used for determining the viability of bacteria, cells, etc. and the enzyme activity detection of oxidoreductase. We detected the decrease of cofactor NADPH to determine the inhibitory activity of a compound against IDHm and detected the generation of cofactor NADPH to determine the inhibitory activity of a compound against IDH WT.
The compound was pre-incubated with IDHm and NADPH, and then the reaction was initiated by adding α-KG and performed for certain time under a linear condition.
Then, Diaphorase (lipoamide dehydrogenase) and the corresponding substrate Resazurin were added thereto for detection. Lipoamide dehydrogenase terminated the IDH2m reaction by decreasing the available cofactor NADPH, which oxidized NADPH to NADP, and reduced resazurin to high fluorescent resorufin. The amount of the remaining cofactor NADPH after a specific reaction time was quantified via an easily detectable fluorophore.
The specific operation was as follows: 2.5 μl of the compound diluted in a 3-fold gradient was added to a 384-well plate, followed by adding 5 μL of the reaction buffer (20 mM Tris-HCl, pH 7.5; 150 mM NaCl; 10 mM MgCl2; 0.4 mg/mL BSA (Bovine Serum Albumin) and 2 mM DTT (dithiothreitol)) containing 40 nM IDH1 (R132H/R132C) and 20 μM NADPH. Then, the above test mixture was incubated at 23° C. for 16 hours, and then 2.5 μL of the reaction buffer containing 4 mM α-KG was added to initiate the reaction. After they were incubated for 60 minutes at room temperature, 5 μL of the termination mixture (0.4 U/ml Diaphorase and 20 μM Resazurin) formulated with the reaction buffer was added to convert resazurin to resorufin, so as to measure the amount of the remaining NADPH. After incubating at 23° C. for 10 minutes, fluorescence values were determined through Flexstation 3 at Ex535/Em595. The enzyme activity of each compound was respectively determined at 12 concentrations, and the data were calculated using the software GraFit6.0 (Erithacus Software) to obtain the IC50 value of each compound.

Sequence of IDH1 (R132H) (O75874 whole entry R132H): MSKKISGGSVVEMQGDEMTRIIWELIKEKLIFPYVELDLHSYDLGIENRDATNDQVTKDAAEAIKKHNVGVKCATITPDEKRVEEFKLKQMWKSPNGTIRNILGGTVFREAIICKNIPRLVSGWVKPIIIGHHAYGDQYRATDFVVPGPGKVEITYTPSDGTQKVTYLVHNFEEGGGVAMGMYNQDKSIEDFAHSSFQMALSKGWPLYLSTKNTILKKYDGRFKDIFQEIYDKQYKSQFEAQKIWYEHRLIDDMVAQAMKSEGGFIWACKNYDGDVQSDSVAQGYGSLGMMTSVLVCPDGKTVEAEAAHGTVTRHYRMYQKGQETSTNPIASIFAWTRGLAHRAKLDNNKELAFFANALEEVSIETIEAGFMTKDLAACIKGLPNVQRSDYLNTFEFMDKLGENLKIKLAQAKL

IC50 [nM]	Compound
< 100	NS(=O)(=O)c1cccc(N(C(=O)CNS(=O)(=O)N2CC2)C(C(=O)NC2CC(F)(F)C2)c2ccccc2Cl)c1 (stereo not shown) [Example 28, 2-(aziridine-1-sulfonylamino)-N-(1-(2-chlorophenyl)-2-((3,3-difluorocyclobutyl)amino)-2-oxoethyl)-N-(3-aminosulfonylphenyl)acetamide]
< 20	O=C(NC1CCC(F)(F)CC1)C(c1ccccc1Cl)N(C(=O)CNS(=O)(=O)N1CC1)c1cccc(F)c1 (stereo not shown) [Example 30, 2-(aziridine-1-sulfonylamino)-N-(1-(2-chlorophenyl)-2-(4,4-difluorocyclohexylamino)-2-oxoethyl)-N-(3-fluorophenyl)acetamide]
< 20	C[C@@H]1CN1S(=O)(=O)NCC(=O)N(c1cccc(F)c1)C(C(=O)NC1CCCCC1)c1ccccc1Cl (stereo partly drawn) [Example 31, 2-(2-chlorophenyl)-N-cyclohexyl-2-(N-(3-fluorophenyl)-2-(((R)-2-methylaziridine)-1-sulfonylamino)acetamido)acetamide]
< 100	O=C(NC1CC(F)(F)C1)[C@@H](c1ccccc1Cl)N(C(=O)CNS(=O)(=O)N1CC1)c1cccc(F)c1 [Example 26, (R)-2-(aziridine-1-sulfonylamino)-N-(1-(2-chlorophenyl)-2-((3,3-difluorocyclobutyl)amino)-2-oxoethyl)-N-(3-fluorophenyl)acetamide]
< 100	O=C(NC1CC(F)(F)C1)C(c1ccccc1Cl)N(C(=O)CNS(=O)(=O)N1CC1)c1cccc(C(F)(F)F)c1 (stereo not shown) [Example 23, 2-(aziridine-1-sulfonylamino)-N-(1-(2-chlorophenyl)-2-((3,3-difluorocyclobutyl)amino)-2-oxoethyl)-N-(3-trifluoromethylphenyl)acetamide]
< 20	O=C(NC1CCCCC1)C(c1ccccc1Cl)N(C(=O)C1CCN(S(=O)(=O)N2CC2)C1)c1cccc(F)c1 (stereo not shown) [Example 27, 1-(aziridin-1-ylsulfonyl)-N-(1-(2-chlorophenyl)-2-cyclohexylamino-2-oxoethyl)-N-(3-fluorophenyl)pyrrolidine-3-carboxamide]
< 100	C[C@H]1CN1S(=O)(=O)NCC(=O)N(c1cc(F)cc(C#N)c1)C(C(=O)NC1CC(F)(F)C1)c1ccccc1Cl (stereo partly drawn) [Example 33, 2-(2-chlorophenyl)-2-(N-(3-cyano-5-fluorophenyl)-2-(((S)-2-methylaziridine)-1-sulfonylamino)acetamido)-N-(3,3-difluorocyclobutyl)acetamide]
< 20	O=C(NC1CC(F)(F)C1)[C@H](c1ccccc1Cl)N(C(=O)[C@H]1CCN(S(=O)(=O)N2CC2)C1)c1cccc(F)c1 [Example 34, (S)-1-(aziridin-1-ylsulfonyl)-N—((S)-1-(2-chlorophenyl)-2-((3,3-difluorocyclobutyl)amino)-2-oxoethyl)-N-(3-fluorophenyl)pyrrolidine-3-carboxamide]

Further lines, the compound ahead of its results:

Compound	IC50 [nM]
O=C(NC1CCCCC1)C(c1ccccc1Cl)N(C(=O)CNS(=O)(=O)N1CC1)c1cccc(F)c1 (stereo not shown) [Example 1, 2-(aziridinyl-1-sulfonylamino)-N-(1-(2-chlorophenyl)-2-(cyclohexylamino)-2-oxoethyl)-N-(3-fluorophenyl)acetamide]	< 20
CC(C)[C@@H]1CN1S(=O)(=O)NCC(=O)N(c1cccc(F)c1)C(C(=O)NC1CCCCC1)c1ccccc1Cl (stereo in doubt) [Example 9, 2-(2-chlorophenyl)-N-cyclohexyl-2-(N-(3-fluorophenyl)-2-((R)-2-isopropylaziridine-1-sulfonylamino)acetamido)acetamide]	< 100
O=C(NC1CC(F)(F)C1)C(c1ccccc1Cl)N(C(=O)CCCNS(=O)(=O)N1CC1)c1cccc(F)c1 (stereo not shown) [Example 13, 4-(aziridine-1-sulfonylamino)-N-(1-(2-chlorophenyl)-2-((3,3-difluorocyclobutyl)amino)-2-oxoethyl)-N-(3-fluorophenyl)butanamide]	< 20
O=C(NC1CCCCC1)C(c1ccccc1Cl)N(C(=O)CCS(=O)(=O)N1CC1)c1cccc(F)c1 (stereo not shown) [Example 6, 3-(aziridin-1-ylsulfonyl)-N-(1-(2-chlorophenyl)-2-(cyclohexylamino)-2-oxoethyl)-N-(3-fluorophenyl)propanamide]	< 20
O=C(NC1CCCCC1)C(c1ccccc1Cl)N(C(=O)CNS(=O)(=O)N1CC1)c1cncc(F)c1 (stereo not shown) [Example 17, 2-(aziridine-1-sulfonylamino)-N-(1-(2-chlorophenyl)-2-(cyclohexylamino)-2-oxoethyl)-N-(5-fluoropyridin-3-yl)acetamide]	< 20
O=C(NC1CCCCC1)C(c1ccccc1Cl)N(C(=O)CNS(=O)(=O)N1CC1)c1cc(F)cc(F)c1 (stereo not shown) [Example 16, 2-(aziridine-1-sulfonylamino)-N-(1-(2-chlorophenyl)-2-(cyclohexylamino)-2-oxoethyl)-N-(3,5-difluorophenyl)acetamide]	< 20
O=C(NC1CC(F)(F)C1)C(c1ccccc1Cl)N(C(=O)CCNS(=O)(=O)N1CC1)c1cccc(F)c1 (stereo not shown) [Example 8, 3-(aziridine-1-sulfonylamino)-N-(1-(2-chlorophenyl)-2-((3,3-difluorocyclobutyl)amino)-2-oxoethyl)-N-(3-fluorophenyl)propanamide]	< 20
O=C(NC1CCCCC1)C(c1ccccc1Cl)N(C(=O)CCNS(=O)(=O)N1CC1)c1cccc(F)c1 (stereo not shown) [Example 5, 3-(aziridine-1-sulfonylamino)-N-(1-(2-chlorophenyl)-2-(cyclohexylamino)-2-oxoethyl)-N-(3-fluorophenyl)propanamide]	< 20
C[C@@H](NS(=O)(=O)N1CC1)C(=O)N(c1cccc(F)c1)[C@H](C(=O)NC1CCCCC1)c1ccccc1Cl [Example 4, (R)-2-(aziridine-1-sulfonylamino)-N—((S)-1-(2-chlorophenyl)-2-(cyclohexylamino)-2-oxoethyl)-N-(3-fluorophenyl)propanamide]	< 100
C[C@@H](NS(=O)(=O)N1CC1)C(=O)N(c1cccc(F)c1)[C@@H](C(=O)NC1CCCCC1)c1ccccc1Cl [Example 3, (R)-2-(aziridine-1-sulfonylamino)-N—((R)-(2-chlorophenyl)-2-(cyclohexylamino)-2-oxoethyl)-N-(3-fluorophenyl)propanamide]	< 10000
O=C(NC1CCCCC1)[C@H](c1ccccc1Cl)N(C(=O)[C@@H]1CCCN1S(=O)(=O)N1CC1)c1cccc(F)c1 [Example 19, (S)-1-(aziridin-1-ylsulfonyl)-N—((S)-1-(2-chlorophenyl)-2-(cyclohexylamino)-2-oxoethyl)-N-(3-fluorophenyl)pyrrolidine-2-carboxamide]	< 100
CN(CC(=O)N(c1cccc(F)c1)C(C(=O)NC1CCCCC1)c1ccccc1Cl)S(=O)(=O)N1CC1 (stereo not shown) [Example 12, 2-(2-chlorophenyl)-N-cyclohexyl-2-(N-(3-fluorophenyl)-2-(N-methylaziridine-1-sulfonylamino)acetamido)acetamide]	< 20
O=C(NC1CC(F)(F)C1)C(c1ccccc1Cl)N(C(=O)CNS(=O)(=O)N1CC1)c1cncc(F)c1 (stereo not shown) [Example 11, 2-(aziridine-1-sulfonylamino)-N-(1-(2-chlorophenyl)-2-((3,3-difluorocyclobutyl)amino)-2-oxoethyl)-N-(5-fluoropyridin-3-yl)acetamide]	< 100
O=C(NC1CCCCC1)C(c1ccccc1Cl)N(C(=O)CCCS(=O)(=O)N1CC1)c1cccc(F)c1 (stereo not shown) [Example 21, 4-(aziridin-1-ylsulfonyl)-N-(1-(2-chlorophenyl)-2-(cyclohexylamino)-2-oxoethyl)-N-(3-fluorophenyl)butanamide]	< 20
